In test [1] the test system is MCF7. The experiment in a line: Cytotoxicity against Homo sapiens (human) MCF7 cells after 24 hr by MTT assay. It is filed as functional, cell-based. The note with it: MCF7, 24 h.
Test [2] has as its system Pseudomonas aeruginosa. The experiment in a line: Antimicrobial activity against Pseudomonas aeruginosa ATCC 25619 after 24 hr by two-fold serial dilution method. Format: functional. Particulars: ATCC 25619, 24 h.
Test [3] has as its system A549. The experiment in a line: Cytotoxicity against Homo sapiens (human) A549 cells after 24 hr by MTT assay. Format: functional, cell-based. Particulars: A549, 24 h.
Test [4] concerns Cryptococcus neoformans. Nature of the test: Antimicrobial activity against Cryptococcus neoformans clinical isolate after 48 hr by two-fold serial dilution method. Format: functional.
In test [5] the test system is HT-29. Nature of the test: Cytotoxicity against Homo sapiens (human) HT-29 cells after 24 hr by MTT assay. Format: functional, cell-based. The note with it: HT-29, 24 h.
In test [6] the test system is HeLa. Nature of the test: Cytotoxicity against Homo sapiens (human) HeLa cells after 24 hr by MTT assay. It is filed as functional, cell-based.
The test system of test [7] is Aspergillus niger. The experiment in a line: Antimicrobial activity against Aspergillus niger ATCC 6275 after 48 hr by two-foldserial dilution method. It is filed as functional. The note with it: ATCC 6275, 48 h.
For test [8], the system named is Enterococcus faecalis. The experiment in a line: Antimicrobial activity against Enterococcus faecalis ATCC 35550 after 24 hr by two-fold serial dilution method. It is filed as functional. Particulars: ATCC 35550, 24 h.
In test [9] the test system is Escherichia coli. Nature of the test: Antimicrobial activity against Escherichia coli ATCC 35218 after 24 hr by two-fold serial dilution method. Format: functional. Particulars: ATCC 35218, 24 h.
For test [10], the system named is Aspergillus flavus. Nature of the test: Antimicrobial activity against Aspergillus flavus NCIM 524 after 48 hr by two-fold serial dilution method. It is filed as functional. The note with it: NCIM 524, 48 h.
Test [11] relates to Staphylococcus aureus. Nature of the test: Antimicrobial activity against Staphylococcus aureus ATCC 25923 after 24 hr by two fold serial dilution method. Format: functional. The note with it: ATCC 25923, 24 h.
In test [12] the test system is Candida albicans. Nature of the test: Antimicrobial activity against Candida albicans ATCC 2091 after 48 hr by two-fold serial dilution method. It is filed as functional. The note with it: ATCC 2091, 48 h.

≈ marks a conversion by molar mass, not a printed value.

Data on 15 compounds can be found in ChEMBL document CHEMBL3046687, “New thiazolidine-2,4-diones as antimicrobial and cytotoxic agent” (Med Chem Res, 2012).

Take `COc1cc(/C=C2\SC(=O)N(Cc3ccc(C(=O)O)cc3)C2=O)cc(OC)c1OC`: the half-inhibitory concentration (IC50) in [1] was 30 µM; in [3], 36 µM; in [5], 32 µM; in test [6], 30 µM. Further, the minimal inhibitory concentration (MIC) in test [2] amounted to 8 µg/mL (≈ 18.6 µM); in test [4] it was 4 µg/mL (≈ 9.31 µM); in test [7] it was 4 µg/mL (≈ 9.31 µM); in [8], 8 µg/mL (≈ 18.6 µM); in test [9], 8 µg/mL (≈ 18.6 µM); in test [10], 4 µg/mL (≈ 9.31 µM). Moreover, the MIC was determined as 8 µg/mL (≈ 18.6 µM) in test [11] and 2 µg/mL (≈ 4.66 µM) in test [12].
As to `COc1ccc(/C=C2\SC(=O)N(Cc3ccc(C(=O)O)cc3)C2=O)cc1`, the IC50 in [1] was found to be 48 µM; in test [3], 44 µM; in test [5], 44 µM; in [6] it was 40 µM. Moreover, the MIC in test [2] stood at 32 µg/mL (≈ 86.6 µM); in test [4], 16 µg/mL (≈ 43.3 µM); in test [7] it was 32 µg/mL (≈ 86.6 µM); in [8], 16 µg/mL (≈ 43.3 µM); in test [9], 32 µg/mL (≈ 86.6 µM); in [10], 32 µg/mL (≈ 86.6 µM). Moreover, the MIC in test [11] and in test [12] was 16 µg/mL (≈ 43.3 µM) throughout.
As to `CC(=O)N1CCN(c2ccc(OCC3COC(Cn4ccnc4)(c4ccc(Cl)cc4Cl)O3)cc2)CC1` (configuration not stated) [KETOCONAZOLE], the MIC in test [4] was 2 µg/mL (≈ 3.76 µM); in test [7], 2 µg/mL (≈ 3.76 µM); in [10], 1 µg/mL (≈ 1.88 µM); in test [12] it was 2 µg/mL (≈ 3.76 µM).
As to `O=C(O)c1ccc(CN2C(=O)S/C(=C\c3ccccc3)C2=O)cc1`, the IC50 in test [1] was 100 µM; in [3] it was 90 µM; in test [5] it was 88 µM; in test [6], 72 µM. Moreover, the MIC came to 8 µg/mL (≈ 23.6 µM) in test [2]; 16 µg/mL (≈ 47.1 µM) in test [4]; 16 µg/mL (≈ 47.1 µM) in test [7]; 64 µg/mL (≈ 189 µM) in [8]; 4 µg/mL (≈ 11.8 µM) in [9]; 32 µg/mL (≈ 94.3 µM) in test [10]. The MIC came out at 128 µg/mL (≈ 377 µM) in test [11] and 16 µg/mL (≈ 47.1 µM) in test [12].
With `O=C(O)c1ccc(CN2C(=O)S/C(=C\c3ccccn3)C2=O)cc1`, the IC50 came out at 90 µM in [1], 80 µM in test [3], 78 µM in test [5] and 62 µM in test [6]. Moreover, the MIC in test [2] came to 16 µg/mL (≈ 47 µM); in test [4] it was 16 µg/mL (≈ 47 µM); in test [7], 32 µg/mL (≈ 94 µM); in test [8], 64 µg/mL (≈ 188 µM); in test [9], 16 µg/mL (≈ 47 µM); in [10], 16 µg/mL (≈ 47 µM). Moreover, the MIC is 64 µg/mL (≈ 188 µM) in [11] and 32 µg/mL (≈ 94 µM) in test [12].
Regarding `O=C(O)c1ccc(CN2C(=O)S/C(=C\c3ccc(Br)cc3)C2=O)cc1`, the 50% inhibitory concentration (IC50) stood at 48 µM in [1], 42 µM in test [3], 30 µM in test [5] and 38 µM in test [6]. For the same compound, the MIC came to 4 µg/mL (≈ 9.56 µM) in test [2]; 16 µg/mL (≈ 38.3 µM) in test [4]; 32 µg/mL (≈ 76.5 µM) in test [7]; 128 µg/mL (≈ 306 µM) in test [8]; 4 µg/mL (≈ 9.56 µM) in test [9]; 16 µg/mL (≈ 38.3 µM) in test [10]. For the same compound, the MIC in [11] was 128 µg/mL (≈ 306 µM); in test [12] it was 16 µg/mL (≈ 38.3 µM).
Turning to `Cn1cccc1/C=C1\SC(=O)N(Cc2ccc(C(=O)O)cc2)C1=O`, the IC50 in test [1] was 70 µM; in test [3], 80 µM; in test [5], 88 µM; in [6], 90 µM. Moreover, the MIC in test [2] came out at 16 µg/mL (≈ 46.7 µM); in test [4], 32 µg/mL (≈ 93.5 µM); in test [7], 16 µg/mL (≈ 46.7 µM); in [8], 64 µg/mL (≈ 187 µM); in test [9], 16 µg/mL (≈ 46.7 µM); in test [10], 16 µg/mL (≈ 46.7 µM). For the same compound, the MIC was 64 µg/mL (≈ 187 µM) in test [11] and 32 µg/mL (≈ 93.5 µM) in test [12].
Consider `COc1cccc(/C=C2\SC(=O)N(Cc3ccc(C(=O)O)cc3)C2=O)c1`, for which the IC50 in test [1] worked out at 58 µM; in test [3], 55 µM; in test [5] it was 48 µM; in test [6], 48 µM. Besides, the MIC in test [2] turned out to be 8 µg/mL (≈ 21.7 µM); in test [4] it was 16 µg/mL (≈ 43.3 µM); in test [7] it was 32 µg/mL (≈ 86.6 µM); in test [8] it was 16 µg/mL (≈ 43.3 µM); in test [9] it was 8 µg/mL (≈ 21.7 µM); in test [10] it was 32 µg/mL (≈ 86.6 µM). In addition, the MIC in test [11] is 16 µg/mL (≈ 43.3 µM); in test [12] it was 32 µg/mL (≈ 86.6 µM).
For `O=C(O)c1ccc(CN2C(=O)S/C(=C\c3cccs3)C2=O)cc1`, the IC50 stood at 76 µM in test [1], 80 µM in [3], 88 µM in test [5] and 76 µM in test [6]. For the same compound, the MIC was 16 µg/mL (≈ 46.3 µM) in [2]; 32 µg/mL (≈ 92.6 µM) in [4]; 8 µg/mL (≈ 23.2 µM) in test [7]; 32 µg/mL (≈ 92.6 µM) in test [8]; 8 µg/mL (≈ 23.2 µM) in test [9]; 8 µg/mL (≈ 23.2 µM) in test [10]. Also, the MIC was found to be 16 µg/mL (≈ 46.3 µM) in test [11] and 32 µg/mL (≈ 92.6 µM) in test [12].
For `O=C(O)c1ccc(CN2C(=O)S/C(=C\c3cccnc3)C2=O)cc1`, the IC50 worked out at 100 µM in [1], 75 µM in [3], 90 µM in test [5] and 88 µM in test [6]. The minimum inhibitory concentration (MIC) is 32 µg/mL (≈ 94 µM) in test [2]; 32 µg/mL (≈ 94 µM) in test [4]; 16 µg/mL (≈ 47 µM) in test [7]; 128 µg/mL (≈ 376 µM) in test [8]; 32 µg/mL (≈ 94 µM) in [9]; 16 µg/mL (≈ 47 µM) in [10]. In addition, the MIC in test [11] worked out at 128 µg/mL (≈ 376 µM); in test [12] it was 32 µg/mL (≈ 94 µM).
Take `CC1(C)S[C@@H]2[C@H](NC(=O)[C@H](N)c3ccccc3)C(=O)N2[C@H]1C(=O)O` [AMPICILLIN]: the MIC in test [8] and in test [11] was 2 µg/mL (≈ 5.72 µM) in each case.
With `O=C(O)c1ccc(CN2C(=O)S/C(=C\c3ccco3)C2=O)cc1`, the IC50 was 90 µM in test [1], 76 µM in test [3], 94 µM in test [5] and 80 µM in test [6]. Further, the MIC in test [2] was 16 µg/mL (≈ 48.6 µM); in test [4] it was 64 µg/mL (≈ 194 µM); in [7] it was 32 µg/mL (≈ 97.2 µM); in test [8], 64 µg/mL (≈ 194 µM); in test [9] it was 16 µg/mL (≈ 48.6 µM); in test [10] it was 32 µg/mL (≈ 97.2 µM). The MIC in test [11] was found to be 32 µg/mL (≈ 97.2 µM); in [12], 64 µg/mL (≈ 194 µM).
On to `O=C(O)c1ccc(CN2C(=O)S/C(=C\c3ccncc3)C2=O)cc1`, for which the IC50 was 84 µM in [1], 72 µM in test [3], 80 µM in [5] and 60 µM in test [6]. Further, the MIC in test [2] came to 16 µg/mL (≈ 47 µM); in test [4], 16 µg/mL (≈ 47 µM); in test [7], 32 µg/mL (≈ 94 µM); in test [8], 16 µg/mL (≈ 47 µM); in test [9], 16 µg/mL (≈ 47 µM); in [10], 32 µg/mL (≈ 94 µM). In addition, the MIC in test [11] is 32 µg/mL (≈ 94 µM); in test [12], 16 µg/mL (≈ 47 µM).
Regarding `O=C(O)c1ccc(CN2C(=O)S/C(=C\c3ccc(F)cc3)C2=O)cc1`, the IC50 was found to be 38 µM in test [1], 36 µM in test [3], 32 µM in [5] and 34 µM in [6]. In addition, the MIC in test [2], in test [4], in [7], in test [8], in test [9] and in [10] was 4 µg/mL (≈ 11.2 µM) each time. In addition, the minimum inhibitory concentration (MIC) in test [11] and in [12] was 2 µg/mL (≈ 5.6 µM) each time.
For `Cc1ccc(/C=C2\SC(=O)N(Cc3ccc(C(=O)O)cc3)C2=O)cc1`, the half-inhibitory concentration (IC50) in test [1] stood at 100 µM; in [3] it was 78 µM; in [5], 72 µM; in [6], 68 µM. Besides, the MIC in test [2] worked out at 16 µg/mL (≈ 45.3 µM); in test [4] it was 64 µg/mL (≈ 181 µM); in [7], 64 µg/mL (≈ 181 µM); in test [8], 32 µg/mL (≈ 90.5 µM); in [9] it was 16 µg/mL (≈ 45.3 µM); in [10], 32 µg/mL (≈ 90.5 µM). Moreover, the MIC stood at 32 µg/mL (≈ 90.5 µM) in test [11] and 64 µg/mL (≈ 181 µM) in test [12].
